Measurements from patent US4971967A, “Quinolinecarboxylic acid derivatives, antibacterial compositions and use” (Kanebo Ltd, priority 1989, dated 1990).
≈ marks a conversion by molar mass, not a printed value.

Assays:
[1] = tested on: Staphylococcus aureus FDA 209P JC-1; test: Antibacterial activity (MIC), S. aureus FDA 209P JC-1; assay type: cell-based; conditions: FDA209P; Staphylococcus aureus FDA 209P JC-1, Gram +; read-out: Minimum inhibitory concentration (MIC)
Procedure: (§1) The compounds of the present invention (A, C, D, E, F, G, H, I, J, L, O and P) and the known compound (X) as reference were dissolved in 0.1 N aqueous sodium hydroxide to prepare a solution of 5000 μg/ml in concentration. The compounds of the present invention (B, K, M and N) and the known compound (Y) were dissolved in sterilized distilled water to prepare a solution of 5000 μg/ml in concentration. Each solution was diluted with sterilized distilled water to prepare a standard solution with a concentration of each test compound: 1000 μg/ml. The test was carried out by a method as appointed by Japan Society of Chemotherapy [cf. Chemotherapy, 29, 76-79 (1981)(TOKYO)].

[2] = tested on: Staphylococcus aureus IID 803; test: Antibacterial activity (MIC), S. aureus IID 803; assay type: cell-based; conditions: IID803; Staphylococcus aureus IID 803, Gram +; read-out: Minimum inhibitory concentration (MIC)
Procedure: as §1

[3] = tested on: Staphylococcus epidermidis IAM-1296; test: Antibacterial activity (MIC), S. epidermidis IAM-1296; assay type: cell-based; conditions: Staphylococcus epidermidis, IAM1296, Staphylococcus epidermidis IAM-1296, Gram +; read-out: Minimum inhibitory concentration (MIC)
Procedure: as §1

[4] = tested on: Streptococcus faecalis IID 682; test: Antibacterial activity (MIC), Streptococcus faecalis IID 682; assay type: cell-based; conditions: Enterococcus faecalis, IID682, Streptococcus faecalis IID 682, Gram +; read-out: Minimum inhibitory concentration (MIC)
Procedure: as §1

[5] = tested on: Bacillus subtilis ATCC 6633; test: Antibacterial activity (MIC), Bacillus subtilis ATCC 6633; assay type: cell-based; conditions: Bacillus subtilis, ATCC6633, Bacillus subtilis ATCC 6633, Gram +; read-out: Minimum inhibitory concentration (MIC)
Procedure: as §1

[6] = tested on: Micrococcus luteus ATCC 9341; test: Antibacterial activity (MIC), Micrococcus luteus ATCC 9341; assay type: cell-based; conditions: ATCC9341; Micrococcus luteus ATCC 9341, Gram +; read-out: Minimum inhibitory concentration (MIC)
Procedure: as §1

[7] = tested on: Escherichia coli NIHJ JC-2; test: Antibacterial activity (MIC), E. coli NIHJ JC-2; assay type: cell-based; conditions: NIHJJC2; Escherichia coli NIHJ JC-2, Gram -; read-out: Minimum inhibitory concentration (MIC)
Procedure: as §1

Escherichia coli KC-14 = test: Antibacterial activity (MIC), E. coli KC-14; assay type: cell-based; conditions: KC14; Escherichia coli KC-14, Gram -; read-out: Minimum inhibitory concentration (MIC)
Procedure: as §1

[8] = tested on: Klebsiella pneumoniae PCI-602; test: Antibacterial activity (MIC), Klebsiella pneumoniae PCI-602; assay type: cell-based; conditions: PCI602; Klebsiella pneumoniae PCI-602, Gram -; read-out: Minimum inhibitory concentration (MIC)
Procedure: as §1

[9] = tested on: Salmonella typhimurium IID 971; test: Antibacterial activity (MIC), Salmonella typhimurium IID 971; assay type: cell-based; conditions: Salmonella enterica; Salmonella typhimurium IID 971, Gram -; read-out: Minimum inhibitory concentration (MIC)
Procedure: as §1

Shigella sonnei EW-33 = test: Antibacterial activity (MIC), Shigella sonnei EW-33; assay type: cell-based; conditions: Shigella sonnei, EW33, Shigella sonnei EW-33, Gram -; read-out: Minimum inhibitory concentration (MIC)
Procedure: as §1

[10] = tested on: Serratia marcescens IAM 1184; test: Antibacterial activity (MIC), Serratia marcescens IAM 1184; assay type: cell-based; conditions: Serratia marcescens, IAM1184, Serratia marcescens IAM 1184, Gram -; read-out: Minimum inhibitory concentration (MIC)
Procedure: as §1

[11] = tested on: Pseudomonas aeruginosa IFO 3445; test: Antibacterial activity (MIC), P. aeruginosa IFO 3445; assay type: cell-based; conditions: Pseudomonas aeruginosa, IFO3445, Pseudomonas aeruginosa IFO 3445, Gram -; read-out: Minimum inhibitory concentration (MIC)
Procedure: as §1

[12] = tested on: Pseudomonas aeruginosa NCTC 10490; test: Antibacterial activity (MIC), P. aeruginosa NCTC 10490; assay type: cell-based; conditions: Pseudomonas aeruginosa, NCTC10490, Pseudomonas aeruginosa NCTC 10490, Gram -; read-out: Minimum inhibitory concentration (MIC)
Procedure: as §1

[13] = tested on: Pseudomonas aeruginosa E-2; test: Antibacterial activity (MIC), P. aeruginosa E-2; assay type: cell-based; conditions: E2; Pseudomonas aeruginosa E-2, Gram -; read-out: Minimum inhibitory concentration (MIC)
Procedure: as §1

[14] = tested on: Morganella morganii IFO 3848; test: Antibacterial activity (MIC), Morganella morganii IFO 3848; assay type: cell-based; conditions: Morganella morganii, IFO3848, Morganella morganii IFO 3848, Gram -; read-out: Minimum inhibitory concentration (MIC)
Procedure: as §1

Proteus vulgaris OX-19 = test: Antibacterial activity (MIC), Proteus vulgaris OX-19; assay type: cell-based; conditions: OX19; Proteus vulgaris OX-19, Gram -; read-out: Minimum inhibitory concentration (MIC)
Procedure: as §1

[15] = tested on: Proteus mirabilis IFO 3849; test: Antibacterial activity (MIC), Proteus mirabilis IFO 3849; assay type: cell-based; conditions: IFO3849; Proteus mirabilis IFO 3849, Gram -; read-out: Minimum inhibitory concentration (MIC)
Procedure: as §1

[16] = tested on: Enterobacter aerogenes ATCC 13048; test: Antibacterial activity (MIC), Enterobacter aerogenes ATCC 13048; assay type: cell-based; conditions: Klebsiella aerogenes, ATCC13048; Enterobacter aerogenes ATCC 13048, Gram -; read-out: Minimum inhibitory concentration (MIC)
Procedure: as §1

Enterobacter cloacae 963 = test: Antibacterial activity (MIC), Enterobacter cloacae 963; assay type: cell-based; conditions: Enterobacter cloacae, 963, Enterobacter cloacae 963, Gram -; read-out: Minimum inhibitory concentration (MIC)
Procedure: as §1

[17] = tested on: Citrobacter freundii NIHJ 10018-68; test: Antibacterial activity (MIC), Citrobacter freundii NIHJ 10018-68; assay type: cell-based; conditions: Citrobacter freundii, NIHJ10018, Citrobacter freundii NIHJ 10018-68, Gram -; read-out: Minimum inhibitory concentration (MIC)
Procedure: as §1

[18] = tested on: Acinetobacter calcoaceticus AC 54; test: Antibacterial activity (MIC), Acinetobacter calcoaceticus AC 54; assay type: cell-based; conditions: AC54; Acinetobacter calcoaceticus AC 54, Gram -; read-out: Minimum inhibitory concentration (MIC)
Procedure: as §1

[19] = tested on: Staphylococcus aureus IID 803; test: Effect on treatment of general infectious disease, S. aureus IID 803 (Experiment 4); assay type: in vivo, ddY male mice infected with Staphylococcus aureus; conditions: IID803, 168 h, oral, 1 h after i.p. infection, 2.1×10^7 CFU/mouse, survival after one week
Procedure: (§2) The test microorganisms were subjected to standing culture in Trypto-Soya Agar "Nissui" (made by Nissui Seiyaku K.K., Japan) at 37° C. for 16 to 18 hours. The culture was then diluted with PBS (Dulbecco's phosphate buffered saline) and mixed with an equivalent amount of 10% (w/v) Mucin (BACTO MUCIN BACTERIOLOGICAL, made by Difco Co.) to prepare a microorganism solution. The thus prepared microorganism solution (0.5 ml each) was intraperitoneally inoculated to ddY male mice (5 weeks age, weighing 25-28 g, 5 mice in each group), to infect the animals. One hour after the infection, the compound (A) or (J) of the present invention or the known compound (X) suspended in 1% (w/v) aqueous gum arabic or the known compound (Y) dissolved in sterilized distilled water was orally adiministered to mice.
(§3) The mice were daily observed for one week, and from the survival number of mice after one week, the 50% effective dose (ED50) was calculated by Weil method.
Staphylococcus aureus IID 803 (2.1×10^7 CFU/mouse)
(§4) The procedure of Experiment 3 was repeated except that ddY male mice weighing 24 to 28 g were employed.

[20] = tested on: Pseudomonas aeruginosa E-2; test: Effect on treatment of general infectious disease, P. aeruginosa E-2 (Experiment 4); assay type: in vivo, ddY male mice infected with Pseudomonas aeruginosa; conditions: E2, 168 h, oral, 1 h after i.p. infection, 3.4×10^4 CFU/mouse, survival after one week
Procedure: as §2, §3
Pseudomonas aeruginosa E-2 (3.4×10^4 CFU/mouse)
as §4

[21] = Acute toxicity (LD50) (Experiment 6); conditions: mouse, in vivo; oral, mice fasted 18 hours, observed for a week
Procedure: (§5) The compound (O) or (P) of the present invention was suspended in sterilized distilled water to prepare a suspension. The suspension was orally adminstered to ddY male mice (5 weeks age, weighing 20 to 25 g, 5 mice in each group), which had been fasted for 18 hours.

infection = test: Protective effects against infection (Experiments 3 and 4); assay type: in vivo, ddY male mice; conditions: result in words
Procedure: as §2, §3, §4

[22] = Low toxicity (Experiments 5 and 6); assay type: in vivo, ddY male mice; conditions: result in words
Procedure: The compound (A) or (J) of the present invention was suspended in 1% (w/v) aqueous gum arabic to prepare a suspension in concentration of 100 mg/ml. The suspension was orally administered to ddY male mice (5 weeks age, weighing 20 to 25 g, 5 mice in each group), which had been fasted for 18 hours, at a rate of 2000 mg/kg body weight of the compound (A) or (J).
as §5

Work on `CC1CN(c2c(F)cc3c(=O)c(C(=O)O)c4scc5n4c3c2N(C)C5)CC(C)N1C` (stereo not drawn) [Compound (P), 9,1-(Methylimino)methano-7-fluoro-8-(3,4,5-trimethyl-1-piperazinyl)-5-oxo-5H-thiazolo[3,2-a]quinoline-4-carboxylic acid] yielded an MIC [1] of 0.025 µg/mL (≈ 0.0581 µM), an MIC [2] of 0.025 µg/mL (≈ 0.0581 µM) and an MIC [3] of 0.1 µg/mL (≈ 0.232 µM). It also gave an MIC [4] of 0.2 µg/mL (≈ 0.465 µM), an MIC [5] of 0.006 µg/mL (≈ 0.0139 µM) and an MIC [6] of 0.39 µg/mL (≈ 0.906 µM). The MIC [7] was 0.1 µg/mL (≈ 0.232 µM), the MIC (Escherichia coli KC-14) was 0.1 µg/mL (≈ 0.232 µM) and the MIC [8] was 0.006 µg/mL (≈ 0.0139 µM). The MIC [9] was 0.39 µg/mL (≈ 0.906 µM), the MIC (Shigella sonnei EW-33) was 0.05 µg/mL (≈ 0.116 µM) and the MIC [10] was 1.56 µg/mL (≈ 3.62 µM). It also gave an MIC [11] of 3.13 µg/mL (≈ 7.27 µM), an MIC [12] of 1.56 µg/mL (≈ 3.62 µM) and an MIC [13] of 1.56 µg/mL (≈ 3.62 µM). It also gave an MIC [14] of 0.39 µg/mL (≈ 0.906 µM), an MIC (Proteus vulgaris OX-19) of 0.1 µg/mL (≈ 0.232 µM) and an MIC [15] of 0.78 µg/mL (≈ 1.81 µM). For the same compound, the MIC [16] was 0.2 µg/mL (≈ 0.465 µM), the MIC (Enterobacter cloacae 963) was 0.2 µg/mL (≈ 0.465 µM) and the MIC [17] was 1.56 µg/mL (≈ 3.62 µM). The MIC [18] was 0.025 µg/mL (≈ 0.0581 µM), the ED50 [19] was 1.9 mg/kg and the ED50 [20] was 11.1 mg/kg. The LD50 at 168 h [21] was 1070 mg/kg, the “protective effects against infection” value (infection) was “excellent protective effects against infection” and the toxicity [22] was “low toxicity”.
